Reference: patent US20260285853A1, “COMPOUNDS AND METHODS FOR MODULATING SPLICING” (REMIX THERAPEUTICS INC., priority 2023, published 2026)
Read-outs that look alike come from different tables or passages of the source.

Columns and labels:
Assay type in all cases: cell-based
HTT mRNA [1] = assay: Splicing RT-qPCR assay (THP), Table 2A
MYB mRNA [2] = assay: Splicing RT-qPCR assay (THP), Table 2A
HTT mRNA [3] = assay: Gene panel canonical junction qPCR assay, decrease in CJ mRNA, Table 3
Method in brief: (§1)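 A673 cells were plated, left to adhere for 24 h, then dosed; K562 cells were plated in 96- or 384-well format and dosed directly. Both were incubated 24 h at 37 °C with an 11-point 3-fold series (top 10 uM final). Canonical junction mRNA was then read by cDNA synthesis and qPCR.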

MYB mRNA [4] = assay: as above
Method in brief: as §1

[5] = test system: SH-SY5Y (human neuroblastoma) cells; assay: Cell viability, Cell Titer Glo 2.0 assay; details: read-out: Viability SHSY5Y.3 GI50
Method in brief: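 SH-SY5Y neuroblastoma cells are exposed to test compounds for 72 hours at 37 °C and 5% CO2, with final DMSO held at 0.1%. Cell viability is then measured with the CellTiter-Glo 2.0 assay.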

[6] = Table 2A (THP), AJ mRNA increase, read-out: HTT AJ (increase in alternative junction mRNA, AC50)
[7] = Table 2A (THP), CJ mRNA decrease, read-out: HTT CJ (decrease in canonical junction mRNA, IC50)
[8] = Table 2A (THP), AJ mRNA increase, read-out: MYB AJ (increase in alternative junction mRNA, AC50)
[9] = Table 2A (THP), CJ mRNA decrease, read-out: MYB CJ (decrease in canonical junction mRNA, IC50)
[10] = decrease in canonical junction (CJ) mRNA, gene panel qPCR, Table 3
[11] = Table 2A, THP, HTT alternative junction (AJ) mRNA, read-out: HTT AJ (AC50, increase in alternative junction mRNA)
[12] = Table 2A, THP, HTT canonical junction (CJ) mRNA, read-out: HTT CJ (IC50, decrease in canonical junction mRNA)
[13] = Table 2A, THP, MYB alternative junction (AJ) mRNA, read-out: MYB AJ (AC50, increase in alternative junction mRNA)
[14] = Table 2A, THP, MYB canonical junction (CJ) mRNA, read-out: MYB CJ (IC50, decrease in canonical junction mRNA)
[15] = decrease in CJ mRNA levels, canonical junction qPCR, gene panel

Row | Structure (SMILES) | IC50 (HTT mRNA [1]; [7]) [µM] | IC50 (MYB mRNA [2]; [9]) [µM] | IC50 (HTT mRNA [3]; [10]) [µM] | IC50 (MYB mRNA [4]; [10]) [µM] | GI50 [5] [µM] | IC50 (HTT mRNA [1]; [12]) [µM] | IC50 (MYB mRNA [2]; [14]) [µM] | IC50 (HTT mRNA [3]; [15]) [µM] | IC50 (MYB mRNA [4]; [15]) [µM] | AC50 (HTT mRNA [1]; [6]) [µM] | AC50 (MYB mRNA [2]; [8]) [µM] | AC50 (HTT mRNA [1]; [11]) [µM] | AC50 (MYB mRNA [2]; [13]) [µM]
1 | COc1nc2nc(C)cn2cc1NC(=O)c1c(F)cc(N2CCC(NC3CC3)CC2)c2cn(C)nc12 [Compound 398, 4-[4-(cyclopropylamino)-1-piperidy1]-6-fluoro-N-(7-methoxy-2-methyl-imidazo-[1,2-a]pyrimidin-6-yl)-2-methyl-indazole-7-carboxamide] | 1 to 10 | < 0.1 | 1 to 10 | < 0.1 | 0.1 to 1 |  |  |  |  | 1 to 10 | < 0.1 |  | 
2 | Cc1cc2[nH]c(NC(=O)c3ccc(N4CCC(NC5CC5)CC4)c4cn(C)nc34)nc2c(C)n1 [Compound 582, 4-[4-(cyclopropylamino)-1-piperidyl]-N-(4,6-dimethyl-1H-imidazo[4,5-c]pyridin-2-yl)-2-methyl-indazole-7-carboxamide] | > 10 | > 10 | > 10 | > 10 | 1 to 10 |  |  |  |  | > 10 | > 10 |  | 
3 | COc1cc2nn(C)cc2cc1NC(=O)c1ccc(N2CCNC(C)CC2)c2cn(C)nc12 (centres unmarked) [Compound 546] | > 10 | 0.1 to 1 | > 10 | 0.1 to 1 | 1 to 10 |  |  |  |  | > 10 | 0.1 to 1 |  | 
4 | Cc1cn2cc(NC(=O)c3c(C4CC4)cc(N4CCC(NC5CC5)CC4)c4cn(C)nc34)nc2c(C)n1 [Compound 474, 6-cyclopropyl-4-[4-(cyclopropylamino)-1-piperidyl]-N-(6,8-dimethyl-imidazo[1,2-a]-pyrazin-2-yl)-2-methyl-indazole-7-carboxamide] | > 10 | > 10 | > 10 | > 10 | 1 to 10 |  |  |  |  | > 10 | > 10 |  | 
5 | Cc1cn2cc(NC(=O)c3ccc(N4CCNC(C)CC4)c4cn(C)nc34)nc2c(C)n1 (centres unmarked) [Compound 535] | 1 to 10 | 1 to 10 | 1 to 10 | 1 to 10 | 1 to 10 |  |  |  |  | 1 to 10 | 1 to 10 |  | 
6 | Cc1cn2cc(NC(=O)c3ccc(N4CCC(NC5CC5)CC4)c4cn(C)nc34)nc2c(-c2ccns2)n1 [Compound 486, 4-(4-(cyclopropylamino)-piperidin-1-yl)-N-(8-(isothiazol-5-yl)-6-methyl-imidazo[1,2-a]-pyrazin-2-yl)-2-methyl-2H-indazole-7-carboxamide] | > 10 | > 10 | > 10 | > 10 | 1 to 10 |  |  |  |  | > 10 | > 10 |  | 
7 | COc1cc2nn(C)cc2cc1NC(=O)c1ccc(N2CCC(NC3CC3)CC2)c2cc(C)nn12 [Compound 619, 4-[4-(cyclopropylamino)-1-piperidyl]-N-(6-methoxy-2-methyl-indazol-5-y1)-2-methyl-pyrazolo[1,5-a]-pyridine-7-carboxamide] |  |  |  |  | 1 to 10 | 1 to 10 | 0.1 to 1 | 1 to 10 | 0.1 to 1 |  |  | 1 to 10 | 0.1 to 1
8 | CCNC1CCN(c2cc(F)c(C(=O)Nc3nc4c(C)nc(C)cc4o3)c3nn(C)cc23)CC1 [Compound 380, N-(4,6-dimethyl-oxazolo-[4,5-c]-pyridin-2-y1)-4-[4-(ethylamino)-1-piperidy1]-6-fluoro-2-methyl-indazole-7-carboxamide] | > 10 | 1 to 10 | > 10 | 1 to 10 | > 10 |  |  |  |  | > 10 | 1 to 10 |  | 
9 | Cc1cn2cc(NC(=O)c3c(F)cc(N4CCC(NC5CCC5)CC4)c4cn(C)nc34)nc2c(C)n1 [Compound 349, 4-[4-(cyclobutylamino)-1-piperid-yl]-N-(6,8-dimethyl-imidazo [1,2-a]-pyrazin-2-yl)-6-fluoro-2-methyl-indazole-7-carbox-amide] | > 10 | < 0.1 | > 10 | < 0.1 | 0.1 to 1 |  |  |  |  | > 10 | < 0.1 |  | 
10 | Cc1cn2cc(NC(=O)c3ccc(N4CCC(NC5CC5)CC4)c4cc(CO)nn34)nc2c(C)n1 [Compound 616, 4-[4-(cyclopropylamino)-1-piperidyl]-N-(6,8-dimethylimidazo[1,2-a]pyrazin-2-yl)-2-(hydroxymethyl) pyrazolo[1,5-a]-pyridine-7-carboxamide] |  |  |  |  | 1 to 10 | 1 to 10 | 1 to 10 | 1 to 10 | 1 to 10 |  |  | 1 to 10 | 1 to 10

Further lines, with some results ahead:

Row | IC50 (HTT mRNA [1]; [7]) [µM] | IC50 (MYB mRNA [2]; [9]) [µM] | IC50 (HTT mRNA [3]; [10]) [µM] | IC50 (MYB mRNA [4]; [10]) [µM] | GI50 [5] [µM] | IC50 (HTT mRNA [1]; [12]) [µM] | IC50 (MYB mRNA [2]; [14]) [µM] | IC50 (HTT mRNA [3]; [15]) [µM] | IC50 (MYB mRNA [4]; [15]) [µM] | Structure (SMILES) | AC50 (HTT mRNA [1]; [6]) [µM] | AC50 (MYB mRNA [2]; [8]) [µM] | AC50 (HTT mRNA [1]; [11]) [µM] | AC50 (MYB mRNA [2]; [13]) [µM]
11 |  |  |  |  | 0.1 to 1 | 0.1 to 1 | 0.1 to 1 | 0.1 to 1 | 0.1 to 1 | CNC1CCN(c2ccc(C(=O)Nc3cn4cc(C)nc(CNS(C)(=O)=O)c4n3)c3nn(C)cc23)C1 (centres unmarked) [Compound 848, N-[8-(methanesulfonamidomethyl)-6-methyl-imidazo[1,2-a]pyrazin-2-yl]-2-methyl-4-[3-(methylamino)pyrrolidin-1-yl]indazole-7-carboxamide] |  |  | 0.1 to 1 | 0.1 to 1
12 |  |  |  |  | 1 to 10 | > 10 | > 10 | > 10 | > 10 | Cn1cc2cc(NC(=O)c3ccc(N4CCCCC4)c4cn(C)nc34)cc(CNS(C)(=O)=O)c2n1 [Compound 844] |  |  | > 10 | > 10
13 |  |  |  |  | 1 to 10 | > 10 | > 10 | > 10 | > 10 | COC(=O)NCc1nc(C)cn2cc(NC(=O)c3ccc(N4CCC(NC5CC5)CC4)c4cn(C)nc34)nc12 [Compound 807] |  |  | > 10 | > 10
14 |  |  |  |  | 1 to 10 | 1 to 10 | 1 to 10 | 1 to 10 | 1 to 10 | Cc1cn2cc(NC(=O)c3ccc(N(C)C)c4cn(C)nc34)nc2c(CNS(C)(=O)=O)n1 [Compound 792] |  |  | 1 to 10 | 1 to 10
15 |  |  |  |  | > 10 | > 10 | > 10 | > 10 | > 10 | Cc1cn2cc(NC(=O)c3ccc(N4C[C@@H](C)N[C@@H](C)C4)c4c3OC(F)(F)O4)cc(F)c2n1 [Compound 651, 7-[(3R,5S)-3,5-dimethylpiperazin-1-yl]-2,2-difluoro-N-(8-fluoro-2-methylimidazo[1,2-a]-pyridin-6-yl)-1,3-benzodioxole-4-carboxamide] |  |  | > 10 | > 10
16 |  |  |  |  | 1 to 10 | 1 to 10 | 0.1 to 1 | 1 to 10 | 0.1 to 1 | Cc1cn2cc(NC(=O)c3ccc(N4C[C@@H](C)N[C@@H](C)C4)c4c3OCO4)cc(F)c2n1 [Compound 643, 7-[(3S,5R)-3,5-dimethylpiperazin-1-yl]-N-(8-fluoro-2-methyl-imidazo[1,2-a]pyridin-6-yl)-1,3-benzodioxole-4-carboxamide] |  |  | 1 to 10 | 0.1 to 1
17 |  |  |  |  | > 10 | > 10 | 0.1 to 1 | > 10 | 0.1 to 1 | CC(=O)NCc1cc(NC(=O)c2ccc(N3CCC(NC4CC4)CC3)c3cn(C)nc23)cc2cn(C)nc12 [Compound 779] |  |  | > 10 | 0.1 to 1
18 |  |  |  |  | 1 to 10 | > 10 | 1 to 10 | > 10 | 1 to 10 | Cc1cn2cc(NC(=O)c3ccc(N4CCC(NC5CC5)C4)c4c3OCO4)cc(F)c2n1 (centres unmarked) [Compound 649, 7-[3-(cyclopropylamino)-pyrrolidin-1-yl]-N-(8-fluoro-2-methyl-imidazo[1,2-a]pyridin-6-yl)-1,3-benzodioxole-4-carboxamide] |  |  | > 10 | 0.1 to 1
19 |  |  |  |  | 1 to 10 | > 10 | 1 to 10 | > 10 | 1 to 10 | COc1nc2c(C(=O)Nc3cc4cn(C)nc4c(C)c3O)ccc(N3C[C@H](C)N[C@@H](C)C3)c2s1 [Compound 726, 7-[(3S,5S)-3,5-dimethylpiperazin-1-yl]-N-(6-hydroxy-2,7-dimethyl-indazol-5-yl)-2-methoxy-1,3-benzothiazole-4-carboxamide] |  |  | > 10 | 0.1 to 1
20 |  |  |  |  | 1 to 10 | > 10 | > 10 | > 10 | > 10 | CCNC1CCN(c2ccc(C(=O)Nc3cc4cn(C)nc4cc3OC)c3nn(C)cc23)C(C)C1 (centres unmarked) [Compound 736, 4-(4-(ethylamino)-2-methylpiperidin-1-yl)-N-(6-methoxy-2-methyl-2H-indazol-5-yl)-2-methyl-2H-indazole-7-carboxamide 2,2,2-trifluoroacetate] |  |  | > 10 | 1 to 10
